Drawing on US20220168430A1, “THERAPEUTIC METHODS FOR TREATING HEPATITIS B” (priority 2019, published 2022), this text covers IC50, inhibition and EC50 for 11 compounds.

Like-named read-outs stand apart in the source and are kept apart here. Where only a bound is given, the exact number is not on record here.

For one series, the system named is HBV genome. In words: IC 50 of HBV siRNA duplexes (Table A). The arrangement: species or system Hepatitis B virus. As to conditions: siRNA duplex.
The next series concerns HBV DNA. As to the kind of experiment: HBV DNA in culture supernatants of HBV-infected PHH by qPCR, single agents and double combinations (Examples 1-4). It is filed as cell-based, HBV genotype D; primary human hepatocytes. The following applies: Hepatitis B virus; for inhibition at 0.05 µM: (VII) 0.05 μM alone; for inhibition at 0.15 µM: (VII) 0.15 μM alone; for inhibition at 0.44 µM: (VII) 0.44 μM alone; for inhibition at 1.33 µM: (VII) 1.33 μM alone; for inhibition at 4 µM: (VII) 4.00 μM alone; for EC50: HBV DNA endpoint, PHH, determined in an earlier separate experiment, read-out: EC50; for inhibition at 0.005 µM / inhibition at 0.015 µM / inhibition at 0.044 µM / inhibition at 0.133 µM / inhibition at 0.4 µM: HBV DNA, (V) 0.00 μg/mL; for inhibition at 0.005 µM: (VI) 0.005 μM; for inhibition at 0.015 µM: (VI) 0.015 μM; for inhibition at 0.044 µM: (VI) 0.044 μM; for inhibition at 0.133 µM: (VI) 0.133 μM; for inhibition at 0.4 µM: (VI) 0.400 μM. The protocol:
(§1) The day PHH seeding date was defined as day 0.
(§2) The PHH were infected with 400 HBV GE/cell of HBV genotype D type HBV on day 1.
(§3) The test articles were further diluted with the culture medium to the final test concentrations.
(§4) All the test articles were further diluted 100 times with the culture medium. The final concentration of DMSO in the culture medium was […].
(§5) The compounds were tested at 7 concentrations, 3-fold dilution, in triplicate.
(§6) Four two-way combinations were performed on a 5×5 matrix, in triplicate plates. Transfection reagent was present in all wells. The culture medium containing the articles were refreshed every 1 or 2 days.
DNA in the culture supernatants harvested on days 8 was isolated with QIAamp 96 DNA Blood Kit (Qiagen-51162). For each sample, 100 μl of each culture supernatant was used to extract DNA. The DNA was eluted with 180 μl of AE. HBV DNA in the culture supernatants was quantified by quatitative PCR using primers and probes outlined in Table 3. Percent inhibition of HBV DNA was calculated with the formula below:
% Inh. HBV DNA=[1−value of sample/AVG. value of Medium control]×100.
(§7) Results of double combination studies were analyzed using MacSynergy II software (Prichard and Shipman, 1992).

For the next series, the system named is HBsAg. In words: microbe, parasite or virus in culture. As to conditions: Hepatitis B virus; for inhibition at 0.05 µM: (VII) 0.05 μM alone; for inhibition at 0.15 µM: (VII) 0.15 μM alone; for inhibition at 0.44 µM: (VII) 0.44 μM alone; for inhibition at 1.33 µM: (VII) 1.33 μM alone; for inhibition at 4 µM: (VII) 4.00 μM alone; for inhibition at 0.005 µM / inhibition at 0.015 µM / inhibition at 0.044 µM / inhibition at 0.133 µM / inhibition at 0.4 µM: read-out: AVERAGE % INHIBITION, HBsAg, (V) 0.00 μg/mL; for inhibition at 0.005 µM: (VI) 0.005 μM; for inhibition at 0.015 µM: (VI) 0.015 μM; for inhibition at 0.044 µM: (VI) 0.044 μM; for inhibition at 0.133 µM: (VI) 0.133 μM; for inhibition at 0.4 µM: (VI) 0.400 μM. It is filed as cell-based, HBV genotype D; primary human hepatocytes. As to the method:
as §1, §2, §3, §4, §5, §6
HBsAg in the culture supernatants harvested on days 8 was measured using the HBsAg/ELISA kit (Autobio) according to the manual. The samples were diluted with PBS to get the signal in the range of the standard curve. Percent inhibition of HBsAg was calculated with the formula below:
% Inh. HBsAg=[1−HBsAg quantity of sample/[…] of DMSO control]×100
as §7

[1] abbreviates: read-out: AVERAGE % INHIBITION, Exp 1.
The mark [2] stands for this setting: read-out: AVERAGE % INHIBITION, Exp 2.

In the series with HBV genome, “5m: "double stranded siRNA molecules selected from the group consisting of 1m, 2m, 3m ... 15m" (sense CCGUGUGCACUUCGCUUCAUU; antisense UUGGCACACGUGAAGCGAAGU; chemistry not fully specified) [Compound 5m]” had a 50% inhibitory concentration (IC50) of 0.06 nM.
For `Cn1cnc(COC(=O)N[C@H]2CCc3c(C(=O)Nc4ccc(F)c(Cl)c4)ccc(F)c32)n1` [(VII)], the inhibition at 0.05 µM in the series with HBV DNA (Exp 1) was -22.6%; in the series on HBV DNA (Exp 2) it was -0.21%; with HBsAg (setting [1]) it was -14.1%; in the series on HBsAg (setting [2]), -3.42%. The inhibition at 0.15 µM is 28.7% in the series with HBV DNA (Exp 1), 16.1% in the series with HBV DNA (Exp 2), -5.43% in the series with HBsAg (setting [1]) and -8.51% with HBsAg (setting [2]). Also, the inhibition at 0.44 µM in the series with HBV DNA (Exp 1) is 50%; with HBV DNA (Exp 2), 31.2%; in the series with HBsAg (setting [1]), -9.81%; in the series on HBsAg (setting [2]), 1.73%. The inhibition at 1.33 µM is 53.9% in the series on HBV DNA (Exp 1), 32.9% in the series with HBV DNA (Exp 2), 29.9% in the series with HBsAg (setting [1]) and 29.4% in the series on HBsAg (setting [2]). Besides, the inhibition at 4 µM in the series with HBV DNA (Exp 1) is 56.2%; in the series with HBV DNA (Exp 2), 41.3%; in the series with HBsAg (setting [1]), 49.6%; in the series on HBsAg (setting [2]), 48.7%. Also, the figures for the EC50 in the series with HBV DNA and in the series with HBsAg were 76 nM and over 4000 nM, respectively.
“13m: "double stranded siRNA molecules selected from the group consisting of 1m, 2m, 3m ... 15m" (sense GCCGAUCCAUACUGCGGAAUU; antisense UUCGGCUAGGUAUGACGCCUU; chemistry not fully specified; one strand is listed 3' to 5') [Compound 13m]” returned a 50% inhibitory concentration (IC50) with HBV genome of 0.2 nM.
“1m: "double stranded siRNA molecules selected from the group consisting of 1m, 2m, 3m ... 15m" (sense AGGUAUGUUGCCCGUUUGUUU; antisense UUUCCAUACAACGGGCAAACA; chemistry not fully specified; one strand is listed 3' to 5') [Compound 1m]” displayed an IC50 in the series with HBV genome of 1.43 nM.
Consider `COCCCOc1cc2c(nc1OC)-c1cc(=O)c(C(=O)O)cn1[C@H](C(C)C)C2` [(VI)], for which, in the series on HBV DNA (Experiment 1), the inhibition at 0.005 µM is 0.64%, the inhibition at 0.015 µM amounted to 6.77%, the inhibition at 0.044 µM is 10.9% and the inhibition at 0.133 µM was found to be 26.7%. Also, the inhibition at 0.4 µM in the series on HBV DNA (Experiment 1) worked out at 21.8%. For the same compound, in the series on HBV DNA (Experiment 2), the inhibition at 0.005 µM was determined as 7.21%, the inhibition at 0.015 µM was 13.7%, the inhibition at 0.044 µM amounted to 19.3% and the inhibition at 0.133 µM stood at 12.8%. The inhibition at 0.4 µM in the series on HBV DNA (Experiment 2) is 27.1%. Moreover, the EC50 with HBV DNA was 6 nM. For the same compound, the EC50 in the series with HBsAg came to 13 nM. In the series with HBsAg (Experiment 1), the inhibition at 0.005 µM amounted to 19.1%, the inhibition at 0.015 µM is 43.1%, the inhibition at 0.044 µM was found to be 62.2% and the inhibition at 0.133 µM turned out to be 74%. Further, the inhibition at 0.4 µM in the series on HBsAg (Experiment 1) was found to be 81%. In addition, in the series with HBsAg (Experiment 2), the inhibition at 0.005 µM turned out to be 11.9%, the inhibition at 0.015 µM came to 38.1%, the inhibition at 0.044 µM amounted to 56.7% and the inhibition at 0.133 µM came out at 69.7%. In addition, the inhibition at 0.4 µM in the series on HBsAg (Experiment 2) turned out to be 77.4%.
“8m: "double stranded siRNA molecules selected from the group consisting of 1m, 2m, 3m ... 15m" (sense GCUCAGUUUACUAGUGCCAUU; antisense UUCGAGUCAAAUGAUCACGGU; chemistry not fully specified; one strand is listed 3' to 5') [Compound 8m]”: half-maximal inhibition in the series with HBV genome (IC50) was put at 0.24 nM.
Compound “9m: "double stranded siRNA molecules selected from the group consisting of 1m, 2m, 3m ... 15m" (sense AGGUAUGUUGCCCGUUUGUUU; antisense UUUCCAUACAACGGGCAAACA; chemistry not fully specified; one strand is listed 3' to 5') [Compound 9m]” yielded an IC50 in the series with HBV genome of 0.13 nM.
Consider “12m: "double stranded siRNA molecules selected from the group consisting of 1m, 2m, 3m ... 15m" (sense GCCGAUCCAUACUGCGGAAUU; antisense UUCGGCUAGGUAUGACGCCUU; chemistry not fully specified; one strand is listed 3' to 5') [Compound 12m]”, for which, in the series on HBV genome, 0.16 nM corresponded to half-maximal inhibition (IC50).
With “14m: "double stranded siRNA molecules selected from the group consisting of 1m, 2m, 3m ... 15m" (sense GCUCAGUUUACUAGUGCCAUU; antisense UUCGAGUCAAAUGAUCACGGU; chemistry not fully specified; one strand is listed 3' to 5') [Compound 14m]”, in the series on HBV genome, the IC50 was found to be 0.16 nM.
In the series on HBV genome, “3m: "double stranded siRNA molecules selected from the group consisting of 1m, 2m, 3m ... 15m" (sense CCGUGUGCACUUCGCUUCAUU; antisense UUGGCACACGUGAAGCGAAGU; chemistry not fully specified) [Compound 3m]” came in with a 50% inhibitory concentration (IC50) of 0.06 nM.
In the series on HBV genome, “6m: "double stranded siRNA molecules selected from the group consisting of 1m, 2m, 3m ... 15m" (sense CUGGCUCAGUUUACUAGUGUU; antisense UUGACCGAGUCAAAUGAUCAC; chemistry not fully specified; one strand is listed 3' to 5') [Compound 6m]” registered an IC50 of 0.05 nM.
